Assay type in all cases: in vivo
Experiment [1] concerns Ipomoea hederacea (IPOHE). As to the kind of experiment: Herbicidal efficacy, post-emergence application (glasshouse). Conditions: Ipomoea hederacea, 312 h, evaluated visually after 13 days, 100=total damage, 0=no damage, read-out: percentage phytotoxicity to the plant, IPOHE. How it is done: (§1) Seeds of a variety of test species [Ipomoea hederacea (IPOHE); Zea mays (ZEAMX); Echinochloa crus-galli (ECHCG); Setaria faberi (SETFA); Abutilon theophrasti (ABUTH); Amaranthus retroflexus (AMARE)] were sown in standard sterilised soil in pots. After cultivation for one day (pre-emergence) or after 8 days cultivation (post-emergence) under controlled conditions in a glasshouse (at 24/16° C., day/night; 14 hours light; 65% humidity), the plants were sprayed with an aqueous spray solution derived from the formulation of the technical active ingredient in acetone/water (50:50) solution containing 0.5% Tween 20 (polyoxyethelyene sorbitan monolaurate, CAS RN 9005-64-5), subsequently diluted in water, and sprayed to give the stated application rate.
(§2) The test plants were then grown under controlled conditions in a glasshouse (at 24/16° C., day/night; 14 hours light; 65% humidity) and watered twice daily.
(§3) After 13 days for pre and post-emergence, the test was evaluated visually for percentage phytotoxicity to the plant (where 100=total damage to plant; 0=no damage to plant).

For experiment [2], the system named is Zea mays (ZEAMX). The description is as above. Conditions: Zea mays, 312 h, evaluated visually after 13 days, 100=total damage, 0=no damage, read-out: percentage phytotoxicity to the plant, ZEAMX. How it is done:
as §1, §2, §3

The test system of experiment [3] is Abutilon theophrasti (ABUTH). Described as above. Conditions: Abutilon theophrasti, 312 h, evaluated visually after 13 days, 100=total damage, 0=no damage, read-out: percentage phytotoxicity to the plant, ABUTH. As to the method: as §1, §2, §3
The subject of experiment [4] is Setaria faberi (SETFA). Described as above. Conditions: Setaria faberi, 312 h, evaluated visually after 13 days, 100=total damage, 0=no damage, read-out: percentage phytotoxicity to the plant, SETFA. As to the method: as §1, §2, §3
The test system of experiment [5] is Amaranthus retroflexus (AMARE). The description is as above. Conditions: Amaranthus retroflexus, 312 h, evaluated visually after 13 days, 100=total damage, 0=no damage, read-out: percentage phytotoxicity to the plant, AMARE. As to the method: as §1, §2, §3
For experiment [6], the system named is Echinochloa crus-galli (ECHCG). The description is as above. Conditions: Echinochloa crus-galli, 312 h, evaluated visually after 13 days, 100=total damage, 0=no damage, read-out: percentage phytotoxicity to the plant, ECHCG. As to the method: as §1, §2, §3
For experiment [7], the system named is Ipomoea hederacea (IPOHE). Description: Herbicidal efficacy, pre-emergence application (glasshouse). Conditions: Ipomoea hederacea, 312 h, evaluated visually after 13 days, 100=total damage, 0=no damage, read-out: percentage phytotoxicity to the plant, IPOHE. How it is done:
as §1, §2, §3

Experiment [8] deals with Zea mays (ZEAMX). The experiment is described as above. Conditions: Zea mays, 312 h, evaluated visually after 13 days, 100=total damage, 0=no damage, read-out: percentage phytotoxicity to the plant, ZEAMX. How it is done: as §1, §2, §3
In experiment [9] the test system is Abutilon theophrasti (ABUTH). Described as above. Conditions: Abutilon theophrasti, 312 h, evaluated visually after 13 days, 100=total damage, 0=no damage, read-out: percentage phytotoxicity to the plant, ABUTH. How it is done: as §1, §2, §3
Experiment [10] has as its system Setaria faberi (SETFA). The experiment is described as above. Conditions: Setaria faberi, 312 h, evaluated visually after 13 days, 100=total damage, 0=no damage, read-out: percentage phytotoxicity to the plant, SETFA. How it is done:
as §1, §2, §3

Experiment [11] has as its system Amaranthus retroflexus (AMARE). Described as above. Conditions: Amaranthus retroflexus, 312 h, evaluated visually after 13 days, 100=total damage, 0=no damage, read-out: percentage phytotoxicity to the plant, AMARE. How it is done:
as §1, §2, §3

The test system of experiment [12] is Echinochloa crus-galli (ECHCG). Described as above. Conditions: Echinochloa crus-galli, 312 h, evaluated visually after 13 days, 100=total damage, 0=no damage, read-out: percentage phytotoxicity to the plant, ECHCG. As to the method:
as §1, §2, §3

As to `CN1C[C@H](c2cc(C(F)(F)F)n(C)n2)[C@@H](C(=O)Nc2cccc(F)c2F)C1=O` [Compound 2.1, (3S,4R)-N-(2,3-difluorophenyl)-1-methyl-4-[1-methyl-5-(trifluoromethyl)pyrazol-3-yl]-2-oxo-pyrrolidine-3-carboxamide], the pest or weed control at 250 g/ha was found to be 0% in experiment [1]; 0% in experiment [3]; 90% in the experiment on Setaria faberi (SETFA) [4]; 20% in experiment [5]; 90% in experiment [6]; 30% in experiment [7]. In addition, the pest or weed control at 250 g/ha in experiment [9] is 10%; in the experiment with Setaria faberi (SETFA) [10], 90%; in experiment [11], 70%; in [12], 100%. In addition, the values for the plant injury at 250 g/ha in the experiment on Zea mays (ZEAMX) [2] and in the experiment on Zea mays (ZEAMX) [8] were 80% and 90%, respectively.
Turning to `CN1C[C@H](c2cc(C(F)(F)F)n(C)n2)[C@@H](C(=O)Nc2ccccc2F)C1=O` [Compound 2.2, (3S,4R)-N-(2-fluorophenyl)-1-methyl-4-[1-methyl-5-(trifluoromethyl)pyrazol-3-yl]-2-oxo-pyrrolidine-3-carboxamide], the pest or weed control at 250 g/ha in [1] came out at 0%; in experiment [3], 0%; in the experiment with Setaria faberi (SETFA) [4], 90%; in experiment [5], 0%; in experiment [6] it was 90%; in experiment [7], 0%. Moreover, the pest or weed control at 250 g/ha in experiment [9] turned out to be 0%; in the experiment on Setaria faberi (SETFA) [10], 90%; in [11] it was 20%; in [12], 90%. In addition, the results for the plant injury at 250 g/ha in the experiment with Zea mays (ZEAMX) [2] and with Zea mays (ZEAMX) [8] were 50% and 20%, respectively.
As for `CN1C[C@H](c2cc(C(F)(F)F)n(C)n2)[C@@H](C(=O)Nc2ccc(F)cc2F)C1=O` [Compound 2.3, (3S,4R)-N-(2,4-difluorophenyl)-1-methyl-4-[1-methyl-5-(trifluoromethyl)pyrazol-3-yl]-2-oxo-pyrrolidine-3-carboxamide], the pest or weed control at 250 g/ha amounted to 10% in [1]; 60% in experiment [3]; 70% with Setaria faberi (SETFA) [4]; 10% in [5]; 70% in experiment [6]; 10% in [7]. For the same molecule, the pest or weed control at 250 g/ha is 70% in [9], 90% in the experiment with Setaria faberi (SETFA) [10], 50% in experiment [11] and 90% in experiment [12]. Also, the plant injury at 250 g/ha in the experiment on Zea mays (ZEAMX) [2] and with Zea mays (ZEAMX) [8] was 60% in each case.
On to `CN1C[C@H](c2cc(C(F)(F)F)n(C)n2)[C@@H](C(=O)Nc2cccc(F)c2OC(F)(F)F)C1=O` [Compound 2.4, (3S,4R)-N-[3-fluoro-2-(trifluoromethoxy)phenyl]-1-methyl-4-[1-methyl-5-(trifluoromethyl)pyrazol-3-yl]-2-oxo-pyrrolidine-3-carboxamide], for which the pest or weed control at 250 g/ha in [1] was 0%; in [3], 0%; in the experiment on Setaria faberi (SETFA) [4], 70%; in experiment [5], 0%; in experiment [6], 70%; in [7] it was 50%. Further, the pest or weed control at 250 g/ha in experiment [9] was found to be 0%; in the experiment with Setaria faberi (SETFA) [10] it was 90%; in [11], 0%; in [12], 90%. Besides, the plant injury at 250 g/ha is 0% in the experiment on Zea mays (ZEAMX) [2] and 30% in the experiment with Zea mays (ZEAMX) [8].
As for `CN1C[C@H](c2cc(C(F)(F)F)n(C)n2)[C@@H](C(=O)Nc2cccc(F)c2C(F)(F)F)C1=O` [Compound 2.5, (3S,4R)-N-[3-fluoro-2-(trifluoromethyl)phenyl]-1-methyl-4-[1-methyl-5-(trifluoromethyl)pyrazol-3-yl]-2-oxo-pyrrolidine-3-carboxamide], the pest or weed control at 250 g/ha stood at 0% in experiment [1]; 0% in experiment [3]; 80% with Setaria faberi (SETFA) [4]; 30% in experiment [5]; 80% in [6]; 10% in experiment [7]. Also, the pest or weed control at 250 g/ha came to 0% in experiment [9], 90% in the experiment on Setaria faberi (SETFA) [10], 0% in [11] and 90% in [12]. For the same molecule, the plant injury at 250 g/ha is 10% with Zea mays (ZEAMX) [2] and 20% with Zea mays (ZEAMX) [8].
Take `COc1c(F)cccc1NC(=O)[C@H]1C(=O)N(C)C[C@@H]1c1cc(C(F)(F)F)n(C)n1` [Compound 2.6, (3S,4R)-N-(3-fluoro-2-methoxy-phenyl)-1-methyl-4-[1-methyl-5-(trifluoromethyl)pyrazol-3-yl]-2-oxo-pyrrolidine-3-carboxamide]: the pest or weed control at 250 g/ha in experiment [1] is 50%; in [3], 0%; with Setaria faberi (SETFA) [4], 70%; in [5] it was 0%; in experiment [6], 70%; in experiment [7], 20%. Further, the pest or weed control at 250 g/ha amounted to 0% in [9], 90% in the experiment on Setaria faberi (SETFA) [10], 0% in experiment [11] and 90% in experiment [12]. In addition, the plant injury at 250 g/ha in the experiment with Zea mays (ZEAMX) [2] and with Zea mays (ZEAMX) [8] was 80% each time.
As for `CN1C[C@H](c2cc(C(F)(F)F)n(C)n2)[C@@H](C(=O)Nc2ccc(F)c(F)c2F)C1=O` [Compound 2.7, (3S,4R)-1-methyl-4-[1-methyl-5-(trifluoromethyl)pyrazol-3-yl]-2-oxo-N-(2,3,4-trifluorophenyl)pyrrolidine-3-carboxamide], the pest or weed control at 250 g/ha stood at 0% in [1]; 0% in [3]; 80% in the experiment with Setaria faberi (SETFA) [4]; 50% in [5]; 80% in experiment [6]; 20% in experiment [7]. Besides, the pest or weed control at 250 g/ha is 10% in [9], 90% in the experiment with Setaria faberi (SETFA) [10], 20% in [11] and 100% in [12]. The plant injury at 250 g/ha in the experiment on Zea mays (ZEAMX) [2] was 80%; in the experiment on Zea mays (ZEAMX) [8], 90%.
Turning to `CN1C[C@H](c2cc(C(F)(F)F)n(C)n2)[C@@H](C(=O)Nc2ccc(F)nc2F)C1=O` [Compound 2.8, (3S,4R)-N-(2,6-difluoro-3-pyridyl)-1-methyl-4-[1-methyl-5-(trifluoromethyl)pyrazol-3-yl]-2-oxo-pyrrolidine-3-carboxamide], the pest or weed control at 250 g/ha stood at 30% in experiment [1]; 0% in experiment [3]; 80% with Setaria faberi (SETFA) [4]; 0% in experiment [5]; 80% in [6]; 0% in experiment [7]. Moreover, the pest or weed control at 250 g/ha was found to be 0% in [9], 90% in the experiment with Setaria faberi (SETFA) [10], 20% in [11] and 90% in [12]. In addition, the plant injury at 250 g/ha amounted to 80% with Zea mays (ZEAMX) [2] and 40% with Zea mays (ZEAMX) [8].
On to `CN1C[C@H](c2cc(C(F)(F)F)n(C)n2)[C@@H](C(=O)Nc2cccc(F)n2)C1=O` [Compound 2.9, (3S,4R)-N-(6-fluoro-2-pyridyl)-1-methyl-4-[1-methyl-5-(trifluoromethyl)pyrazol-3-yl]-2-oxo-pyrrolidine-3-carboxamide], for which the pest or weed control at 250 g/ha in experiment [1] worked out at 50%; in [3] it was 0%; in the experiment on Setaria faberi (SETFA) [4], 80%; in experiment [5], 0%; in experiment [6], 80%; in [7] it was 40%. The pest or weed control at 250 g/ha in experiment [9] is 0%; in the experiment on Setaria faberi (SETFA) [10] it was 90%; in experiment [11], 0%; in experiment [12], 100%. The plant injury at 250 g/ha with Zea mays (ZEAMX) [2] came out at 40%; in the experiment with Zea mays (ZEAMX) [8], 80%.

(Values after patent US11472792B2, “Herbicidal mixtures” (SYNGENTA CROP PROTECTION AG, priority 2019, dated 2022).)
